Experimental data published in the NIST ThermoML archive (doi:10.1021/je034254m).

Experiment: excess molar enthalpy (molar enthalpy of mixing); xn = mol fraction of the nth substance listed
Details: Liquid, Flow calorimetry

CN1CCCC1=O [N-methylpyrrolidone] + CO
393.15 K, 1790 kPa
Details	excess molar enthalpy [kJ/mol]
x2 = 0.0576	-0.148
x2 = 0.1114	-0.275
x2 = 0.2093	-0.471
x2 = 0.2959	-0.612
x2 = 0.3732	-0.703
x2 = 0.4425	-0.755
x2 = 0.5051	-0.771
x2 = 0.5619	-0.766
x2 = 0.6136	-0.74
x2 = 0.6609	-0.7
x2 = 0.7043	-0.656
x2 = 0.7443	-0.597
x2 = 0.7813	-0.536
x2 = 0.8156	-0.473
x2 = 0.8475	-0.405
x2 = 0.8772	-0.342
x2 = 0.905	-0.273
x2 = 0.931	-0.204
x2 = 0.9554	-0.135
x2 = 0.9784	-0.067
x2 = 0.9893	-0.035

O=S1(=O)CCCC1 [sulfolane] + O
413.15 K, 1820 kPa
Details	excess molar enthalpy [kJ/mol]
x2 = 0.0621	0.405
x2 = 0.1183	0.712
x2 = 0.2159	1.19
x2 = 0.3676	1.7
x2 = 0.48	1.85
x2 = 0.5667	1.86
x2 = 0.6355	1.79
x2 = 0.6915	1.68
x2 = 0.738	1.55
x2 = 0.7772	1.41
x2 = 0.8395	1.14
x2 = 0.8648	1.01
x2 = 0.887	0.883
x2 = 0.9067	0.758
x2 = 0.9243	0.638
x2 = 0.9401	0.524
x2 = 0.9544	0.412
x2 = 0.9674	0.304
x2 = 0.9792	0.199
x2 = 0.99	0.097
